According to ChEMBL document CHEMBL1201862, “PubChem BioAssay data set” (2004):
The source made the active and inactive calls.

How the values were obtained:
[1] = target: Lysosomal acid glucosylceramidase (Homo sapiens, UniProt P04062); test: Dose response cell-based high throughput screening assay to identify enhancers of beta-glucosidase activity. [Related pubchem assays: 784 ]; format: functional
[2] = target: T1, Eukaryotic translation initiation factor 2-alpha kinase 3 (Homo sapiens, UniProt Q9NZJ5); test: Dose response cell-based high-throughput screening assay to measure PERK inhibition. [Related pubchem assays: 1416 ]; format: functional
[3] = target: T1, Eukaryotic translation initiation factor 2-alpha kinase 3; test: Counterscreen assay for PERK inhibitors: Dose response cell-based high throughput screening assay to measure inhibition of PERK at 6 hours. [Related pubchem assays: 1522, 1416 ]; format: functional
Streptococcus = test: Luminescence Microorganism-Based Dose Response Follow up to Identify Compounds Cytotoxic to Streptococcus. [Related pubchem assays: 1677 (Project Summary), 1915, 1914, 1902 (Retest at Dose), 1900 (Counter Screen), 1662 (Primary HTS)]; format: functional, organism-based
[4] = target: Mothers against decapentaplegic homolog 3 (Homo sapiens, UniProt P84022); test: Smad3 binding inhibitors, lysate ELISA, dose response, cell lysate, secondary confirmation, chemiluminescent ELISA, HEK293 lysate (AID 1058); format: functional
Estrogen receptor = target: T2, Estrogen receptor (Homo sapiens, UniProt P03372); test: ERα–SRC-3 coactivator interaction inhibitors, confirmation, orthogonal assay, biochemical, ELISA, streptavidin-HRP readout (AID 1079)
T2 sequence (P03372 whole entry): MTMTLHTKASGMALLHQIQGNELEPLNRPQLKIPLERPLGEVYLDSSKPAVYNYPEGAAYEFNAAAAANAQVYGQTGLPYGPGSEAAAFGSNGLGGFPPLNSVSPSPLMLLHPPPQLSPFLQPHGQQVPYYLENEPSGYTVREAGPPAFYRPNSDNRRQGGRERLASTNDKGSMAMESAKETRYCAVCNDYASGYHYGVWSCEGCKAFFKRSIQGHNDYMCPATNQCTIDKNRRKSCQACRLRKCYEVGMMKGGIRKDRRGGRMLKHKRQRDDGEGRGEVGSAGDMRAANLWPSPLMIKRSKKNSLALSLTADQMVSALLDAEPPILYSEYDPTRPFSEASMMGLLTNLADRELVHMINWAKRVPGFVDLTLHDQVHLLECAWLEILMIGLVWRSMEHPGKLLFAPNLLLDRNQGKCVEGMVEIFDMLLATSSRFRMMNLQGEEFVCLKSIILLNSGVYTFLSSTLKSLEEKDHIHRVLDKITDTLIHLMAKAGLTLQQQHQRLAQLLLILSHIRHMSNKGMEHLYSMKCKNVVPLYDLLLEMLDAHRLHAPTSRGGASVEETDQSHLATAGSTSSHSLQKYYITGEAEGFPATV

[5] = target: T3, Photoreceptor-specific nuclear receptor (Homo sapiens, UniProt Q9Y5X4); format: functional
[6] = target: Peroxisome proliferator-activated receptor gamma/Nuclear receptor corepressor 2 (Homo sapiens, UniProt P37231+Q9Y618); format: functional
[7] = target: Sphingosine 1-phosphate receptor 3 (Homo sapiens, UniProt Q99500); test: Dose response cell-based high throughput screening assay for antagonists of the Sphingosine 1-Phosphate Receptor 3 (S1P3). [Related pubchem assays: 1429, 485 ]; format: functional
[8] = target: 5-hydroxytryptamine receptor 1E (Homo sapiens, UniProt P28566); test: Counterscreen assay for S1P3 antagonists: Dose response cell-based high throughput screening assay to identify antagonists of the 5-Hydroxytryptamine Receptor Subtype 1E (5HT1E). [Related pubchem assays: 1429, 485 ]; format: functional
[9] = target: Glyceraldehyde-3-phosphate dehydrogenase (Homo sapiens, UniProt P04406)
[10] = target: T4, Dual specificity protein phosphatase 6 (Rattus norvegicus, UniProt Q64346); format: functional
T4 sequence (Q64346 whole entry): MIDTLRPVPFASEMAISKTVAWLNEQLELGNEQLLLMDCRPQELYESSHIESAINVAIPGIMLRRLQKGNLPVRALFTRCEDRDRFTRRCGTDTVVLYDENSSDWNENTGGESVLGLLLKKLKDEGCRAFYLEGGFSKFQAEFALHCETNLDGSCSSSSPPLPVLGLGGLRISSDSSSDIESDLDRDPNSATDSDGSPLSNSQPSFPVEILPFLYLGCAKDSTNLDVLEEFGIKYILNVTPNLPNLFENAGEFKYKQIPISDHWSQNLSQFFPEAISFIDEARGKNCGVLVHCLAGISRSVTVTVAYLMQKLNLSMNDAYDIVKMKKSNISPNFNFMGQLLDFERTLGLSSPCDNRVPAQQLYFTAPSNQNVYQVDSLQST

[11] = target: Heat shock cognate 71 kDa protein (Homo sapiens, UniProt P11142); test: In Vitro Hsc70 Dose Response Fluorescence Polarization Assay. [Related pubchem assays: 1072 ]
[12] = target: T5, Tyrosine-protein phosphatase non-receptor type 7 (Homo sapiens, UniProt P35236); format: functional
T5 sequence (P35236 whole entry): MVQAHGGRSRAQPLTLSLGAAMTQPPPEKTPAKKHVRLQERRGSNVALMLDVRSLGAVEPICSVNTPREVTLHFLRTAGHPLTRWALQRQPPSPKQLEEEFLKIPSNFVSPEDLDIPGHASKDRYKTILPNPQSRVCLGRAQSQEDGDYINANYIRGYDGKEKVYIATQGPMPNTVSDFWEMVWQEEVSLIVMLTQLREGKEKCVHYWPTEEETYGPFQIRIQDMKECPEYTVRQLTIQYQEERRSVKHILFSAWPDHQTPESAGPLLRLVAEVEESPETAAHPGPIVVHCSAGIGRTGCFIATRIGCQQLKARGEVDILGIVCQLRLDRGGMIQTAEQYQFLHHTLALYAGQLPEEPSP

[13] = target: Heat shock 70 kDa protein 1A (Homo sapiens, UniProt P0DMV8); test: Hsp70 inhibitors, SAR follow-up, biochemical, fluorescence polarization (AID 1072)
[14] = target: T4, Dual specificity protein phosphatase 6
[15] = growth suppression of PTEN-null colon cells, dose response, cell-based, HCT116 PTEN knockout (AID 1047); format: functional;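 further: HCT116 colon tumor cells with PTEN knocked out; cells exposed to compound for 60 hours before readout; potency for loss of cell viability measured by luminescence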
[16] = target: Serine/threonine-protein phosphatase (Homo sapiens, UniProt Q9BPW0); test: Counterscreen for inhibitors of PP1: fluorescence-based biochemical high throughput dose response assay to identify inhibitors of Protein Phosphatase 5 (PP5). [Related pubchem assays: 2034 (Summary (PP5 inhibitors)), 1987 (PP5 inhibitors in singlate), 2235 (PP1 inhibitors in singlate)]
[17] = growth suppression of beta-catenin-knockout colon cells, dose response, cell-based, HCT116, human colon tumor (AID 1045); format: functional;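 further: HCT116 colon tumor cells with beta catenin knocked out; cells exposed to compound for 60 hours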
[18] = target: Serine/threonine-protein phosphatase PP1-alpha catalytic subunit (Homo sapiens, UniProt P62136); test: PP1 phosphatase inhibitors, dose response, biochemical, fluorescence (AID 2403);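 further: phosphatase turnover of OMFP into fluorescent 3-O-methylfluorescein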
[19] = enhancers of respiration in Yfh1-depleted yeast, dose response, Friedreich's ataxia, plus single-dose screen (AID 1465); format: functional;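 further: yeast depleted of Yfh1p frataxin homolog grown on glycerol needing respiration; WST-1 tetrazolium dye reduction as measure of cellular dehydrogenase metabolic activity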
[20] = target: T3, Photoreceptor-specific nuclear receptor; format: functional, cell-based
cells [21] = format: functional, cell-based
[22] = target: T6, Short transient receptor potential channel 4 (Mus musculus, UniProt Q9QUQ5); test: mouse TRPC4 channel inhibitors, dose response, cell-based, HEK293 TRPC4/mu-opioid, Fluo-4 calcium (AID 434942); format: functional;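 further: potency of inhibitors blocking the TRPC4 calcium response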
T6 sequence (Q9QUQ5 whole entry): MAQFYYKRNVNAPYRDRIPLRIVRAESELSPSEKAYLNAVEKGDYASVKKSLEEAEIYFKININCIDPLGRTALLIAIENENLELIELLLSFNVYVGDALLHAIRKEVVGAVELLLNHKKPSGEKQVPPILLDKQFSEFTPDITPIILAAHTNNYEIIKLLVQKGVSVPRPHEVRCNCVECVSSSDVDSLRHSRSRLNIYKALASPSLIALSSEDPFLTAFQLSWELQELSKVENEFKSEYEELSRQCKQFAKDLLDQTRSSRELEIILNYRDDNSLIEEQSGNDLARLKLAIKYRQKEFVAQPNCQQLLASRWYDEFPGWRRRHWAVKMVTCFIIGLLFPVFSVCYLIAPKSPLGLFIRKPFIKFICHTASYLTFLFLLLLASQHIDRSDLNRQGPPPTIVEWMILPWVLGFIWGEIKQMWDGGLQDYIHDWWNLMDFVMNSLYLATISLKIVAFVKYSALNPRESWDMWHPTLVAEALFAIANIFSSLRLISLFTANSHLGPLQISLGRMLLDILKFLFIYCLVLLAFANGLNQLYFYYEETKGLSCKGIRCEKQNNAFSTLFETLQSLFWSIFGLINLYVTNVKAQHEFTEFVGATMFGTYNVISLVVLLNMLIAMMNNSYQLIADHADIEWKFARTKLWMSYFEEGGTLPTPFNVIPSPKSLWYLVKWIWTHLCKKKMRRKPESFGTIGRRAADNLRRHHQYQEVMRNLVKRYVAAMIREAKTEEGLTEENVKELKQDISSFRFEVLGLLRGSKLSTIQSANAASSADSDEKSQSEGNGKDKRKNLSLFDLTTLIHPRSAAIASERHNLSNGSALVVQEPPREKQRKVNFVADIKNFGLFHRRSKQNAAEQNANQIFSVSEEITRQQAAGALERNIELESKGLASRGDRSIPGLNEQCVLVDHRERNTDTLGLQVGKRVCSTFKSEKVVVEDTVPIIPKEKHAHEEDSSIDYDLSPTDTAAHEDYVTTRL

[23] = C. albicans growth with fluconazole, confirmation, fluorescence, retest (AID 2467); format: functional, cell-based
[24] = microbe, parasite or virus in culture; format: functional; settings: Mycobacterium tuberculosis
[25] = HIV-1 Env-mediated cell fusion inhibitors, dose response, CCR5-tropic Env (AID 2279); format: functional
Nonstructural protein 1 = Nonstructural protein 1 (Influenza A virus, UniProt Q194T2); format: functional, Influenza A virus (A/California/07/2009(H1N1))
cells [26] = format: functional, cell-based; remark: listed apart in the source
[27] = NIH-3T3 fibroblast cytotoxicity, dose response, cytotoxicity control, cell-based, fluorescence, Alamar Blue, secondary assay (AID 2327); format: functional;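 further: NIH-3T3 mouse fibroblasts cultured with fluconazole at 8 µg/mL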
INS1 = test: beta cell apoptosis inhibitors, cytokine rescue, dose response, luminescence, retest (AID 449756); format: functional, cell-based; settings: Rattus norvegicus;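 further: cell death triggered by IL-1 beta plus TNF-alpha plus IFN-gamma mixture; protective hits raise ATP signal compared with cytokine alone wells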
Cytochrome P450 2C9 = Cytochrome P450 2C9 (Homo sapiens, UniProt P11712); settings: Potency
Cytochrome P450 2D6 = Cytochrome P450 2D6 (Homo sapiens, UniProt P10635); test: qHTS Assay for Inhibitors and Substrates of Cytochrome P450 2D6. [Related pubchem assays: 410 ]; format: ADME; settings: read-out: Potency

T1 sequence (Q9NZJ5 whole entry): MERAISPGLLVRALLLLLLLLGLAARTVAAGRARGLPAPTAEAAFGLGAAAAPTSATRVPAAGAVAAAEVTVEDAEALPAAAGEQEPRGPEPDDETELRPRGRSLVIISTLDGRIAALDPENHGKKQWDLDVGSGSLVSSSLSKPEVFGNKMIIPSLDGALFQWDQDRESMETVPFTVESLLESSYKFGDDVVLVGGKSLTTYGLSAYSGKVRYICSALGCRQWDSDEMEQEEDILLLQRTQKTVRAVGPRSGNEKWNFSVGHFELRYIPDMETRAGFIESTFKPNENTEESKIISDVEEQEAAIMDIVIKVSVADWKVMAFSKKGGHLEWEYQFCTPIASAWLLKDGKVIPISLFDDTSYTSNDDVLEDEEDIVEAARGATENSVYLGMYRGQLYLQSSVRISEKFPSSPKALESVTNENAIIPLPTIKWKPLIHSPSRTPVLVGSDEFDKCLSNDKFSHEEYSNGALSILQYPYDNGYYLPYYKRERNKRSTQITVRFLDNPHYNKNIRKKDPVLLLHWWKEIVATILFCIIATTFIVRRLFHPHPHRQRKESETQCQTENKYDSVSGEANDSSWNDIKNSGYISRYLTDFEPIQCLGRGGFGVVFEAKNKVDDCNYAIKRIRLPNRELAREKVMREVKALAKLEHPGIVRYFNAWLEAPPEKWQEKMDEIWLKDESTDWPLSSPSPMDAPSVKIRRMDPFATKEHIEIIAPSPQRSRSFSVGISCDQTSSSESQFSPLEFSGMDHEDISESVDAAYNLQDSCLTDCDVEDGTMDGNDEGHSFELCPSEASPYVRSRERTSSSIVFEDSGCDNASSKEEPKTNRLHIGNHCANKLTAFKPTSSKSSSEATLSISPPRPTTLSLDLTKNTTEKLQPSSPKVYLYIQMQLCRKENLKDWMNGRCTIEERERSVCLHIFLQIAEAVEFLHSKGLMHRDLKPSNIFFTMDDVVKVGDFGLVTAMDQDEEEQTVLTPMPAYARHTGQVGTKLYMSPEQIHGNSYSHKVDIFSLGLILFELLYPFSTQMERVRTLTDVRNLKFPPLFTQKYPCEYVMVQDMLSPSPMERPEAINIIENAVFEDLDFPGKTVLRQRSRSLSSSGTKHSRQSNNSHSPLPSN
T3 sequence (Q9Y5X4 whole entry): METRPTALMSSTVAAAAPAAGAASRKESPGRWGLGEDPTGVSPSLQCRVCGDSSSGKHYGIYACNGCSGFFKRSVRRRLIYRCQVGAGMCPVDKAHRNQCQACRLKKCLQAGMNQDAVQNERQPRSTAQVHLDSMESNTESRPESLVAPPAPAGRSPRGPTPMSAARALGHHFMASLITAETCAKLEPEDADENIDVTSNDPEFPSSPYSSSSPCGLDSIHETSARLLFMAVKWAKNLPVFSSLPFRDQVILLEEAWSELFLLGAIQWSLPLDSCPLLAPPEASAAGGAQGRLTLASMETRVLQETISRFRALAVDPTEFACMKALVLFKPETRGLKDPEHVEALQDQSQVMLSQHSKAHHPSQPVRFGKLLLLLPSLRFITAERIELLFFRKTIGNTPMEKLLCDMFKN
Sequence of Cytochrome P450 2C9 (P11712 whole entry): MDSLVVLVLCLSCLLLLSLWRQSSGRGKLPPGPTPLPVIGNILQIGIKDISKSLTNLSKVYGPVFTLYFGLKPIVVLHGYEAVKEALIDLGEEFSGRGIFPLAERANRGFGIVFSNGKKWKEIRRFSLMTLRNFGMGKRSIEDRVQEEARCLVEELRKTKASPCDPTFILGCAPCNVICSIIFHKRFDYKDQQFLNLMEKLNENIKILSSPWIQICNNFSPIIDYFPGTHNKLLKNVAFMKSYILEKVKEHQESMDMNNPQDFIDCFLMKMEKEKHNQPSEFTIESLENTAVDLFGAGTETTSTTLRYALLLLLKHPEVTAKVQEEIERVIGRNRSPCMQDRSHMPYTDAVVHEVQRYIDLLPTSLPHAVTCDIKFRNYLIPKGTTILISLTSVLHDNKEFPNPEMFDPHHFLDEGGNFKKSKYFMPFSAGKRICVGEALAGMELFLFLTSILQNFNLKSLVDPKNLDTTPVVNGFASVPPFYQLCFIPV
Sequence of Peroxisome proliferator-activated receptor gamma/Nuclear receptor corepressor 2 (P37231 whole entry): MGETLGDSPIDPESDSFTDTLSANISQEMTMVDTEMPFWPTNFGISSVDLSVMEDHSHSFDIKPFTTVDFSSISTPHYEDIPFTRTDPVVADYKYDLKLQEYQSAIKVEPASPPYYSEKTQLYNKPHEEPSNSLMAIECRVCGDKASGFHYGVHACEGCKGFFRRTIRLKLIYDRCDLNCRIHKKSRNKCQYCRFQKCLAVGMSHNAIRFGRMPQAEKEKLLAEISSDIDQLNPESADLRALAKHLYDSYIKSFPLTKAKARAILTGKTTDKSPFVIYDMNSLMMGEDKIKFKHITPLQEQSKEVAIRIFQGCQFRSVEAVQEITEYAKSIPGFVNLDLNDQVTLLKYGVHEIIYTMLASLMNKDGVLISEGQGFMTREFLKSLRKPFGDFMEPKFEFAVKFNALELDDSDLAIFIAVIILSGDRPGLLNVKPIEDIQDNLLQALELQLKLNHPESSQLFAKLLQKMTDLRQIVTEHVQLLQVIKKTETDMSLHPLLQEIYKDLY
Sequence of Peroxisome proliferator-activated receptor gamma/Nuclear receptor corepressor 2 (Q9Y618 whole entry): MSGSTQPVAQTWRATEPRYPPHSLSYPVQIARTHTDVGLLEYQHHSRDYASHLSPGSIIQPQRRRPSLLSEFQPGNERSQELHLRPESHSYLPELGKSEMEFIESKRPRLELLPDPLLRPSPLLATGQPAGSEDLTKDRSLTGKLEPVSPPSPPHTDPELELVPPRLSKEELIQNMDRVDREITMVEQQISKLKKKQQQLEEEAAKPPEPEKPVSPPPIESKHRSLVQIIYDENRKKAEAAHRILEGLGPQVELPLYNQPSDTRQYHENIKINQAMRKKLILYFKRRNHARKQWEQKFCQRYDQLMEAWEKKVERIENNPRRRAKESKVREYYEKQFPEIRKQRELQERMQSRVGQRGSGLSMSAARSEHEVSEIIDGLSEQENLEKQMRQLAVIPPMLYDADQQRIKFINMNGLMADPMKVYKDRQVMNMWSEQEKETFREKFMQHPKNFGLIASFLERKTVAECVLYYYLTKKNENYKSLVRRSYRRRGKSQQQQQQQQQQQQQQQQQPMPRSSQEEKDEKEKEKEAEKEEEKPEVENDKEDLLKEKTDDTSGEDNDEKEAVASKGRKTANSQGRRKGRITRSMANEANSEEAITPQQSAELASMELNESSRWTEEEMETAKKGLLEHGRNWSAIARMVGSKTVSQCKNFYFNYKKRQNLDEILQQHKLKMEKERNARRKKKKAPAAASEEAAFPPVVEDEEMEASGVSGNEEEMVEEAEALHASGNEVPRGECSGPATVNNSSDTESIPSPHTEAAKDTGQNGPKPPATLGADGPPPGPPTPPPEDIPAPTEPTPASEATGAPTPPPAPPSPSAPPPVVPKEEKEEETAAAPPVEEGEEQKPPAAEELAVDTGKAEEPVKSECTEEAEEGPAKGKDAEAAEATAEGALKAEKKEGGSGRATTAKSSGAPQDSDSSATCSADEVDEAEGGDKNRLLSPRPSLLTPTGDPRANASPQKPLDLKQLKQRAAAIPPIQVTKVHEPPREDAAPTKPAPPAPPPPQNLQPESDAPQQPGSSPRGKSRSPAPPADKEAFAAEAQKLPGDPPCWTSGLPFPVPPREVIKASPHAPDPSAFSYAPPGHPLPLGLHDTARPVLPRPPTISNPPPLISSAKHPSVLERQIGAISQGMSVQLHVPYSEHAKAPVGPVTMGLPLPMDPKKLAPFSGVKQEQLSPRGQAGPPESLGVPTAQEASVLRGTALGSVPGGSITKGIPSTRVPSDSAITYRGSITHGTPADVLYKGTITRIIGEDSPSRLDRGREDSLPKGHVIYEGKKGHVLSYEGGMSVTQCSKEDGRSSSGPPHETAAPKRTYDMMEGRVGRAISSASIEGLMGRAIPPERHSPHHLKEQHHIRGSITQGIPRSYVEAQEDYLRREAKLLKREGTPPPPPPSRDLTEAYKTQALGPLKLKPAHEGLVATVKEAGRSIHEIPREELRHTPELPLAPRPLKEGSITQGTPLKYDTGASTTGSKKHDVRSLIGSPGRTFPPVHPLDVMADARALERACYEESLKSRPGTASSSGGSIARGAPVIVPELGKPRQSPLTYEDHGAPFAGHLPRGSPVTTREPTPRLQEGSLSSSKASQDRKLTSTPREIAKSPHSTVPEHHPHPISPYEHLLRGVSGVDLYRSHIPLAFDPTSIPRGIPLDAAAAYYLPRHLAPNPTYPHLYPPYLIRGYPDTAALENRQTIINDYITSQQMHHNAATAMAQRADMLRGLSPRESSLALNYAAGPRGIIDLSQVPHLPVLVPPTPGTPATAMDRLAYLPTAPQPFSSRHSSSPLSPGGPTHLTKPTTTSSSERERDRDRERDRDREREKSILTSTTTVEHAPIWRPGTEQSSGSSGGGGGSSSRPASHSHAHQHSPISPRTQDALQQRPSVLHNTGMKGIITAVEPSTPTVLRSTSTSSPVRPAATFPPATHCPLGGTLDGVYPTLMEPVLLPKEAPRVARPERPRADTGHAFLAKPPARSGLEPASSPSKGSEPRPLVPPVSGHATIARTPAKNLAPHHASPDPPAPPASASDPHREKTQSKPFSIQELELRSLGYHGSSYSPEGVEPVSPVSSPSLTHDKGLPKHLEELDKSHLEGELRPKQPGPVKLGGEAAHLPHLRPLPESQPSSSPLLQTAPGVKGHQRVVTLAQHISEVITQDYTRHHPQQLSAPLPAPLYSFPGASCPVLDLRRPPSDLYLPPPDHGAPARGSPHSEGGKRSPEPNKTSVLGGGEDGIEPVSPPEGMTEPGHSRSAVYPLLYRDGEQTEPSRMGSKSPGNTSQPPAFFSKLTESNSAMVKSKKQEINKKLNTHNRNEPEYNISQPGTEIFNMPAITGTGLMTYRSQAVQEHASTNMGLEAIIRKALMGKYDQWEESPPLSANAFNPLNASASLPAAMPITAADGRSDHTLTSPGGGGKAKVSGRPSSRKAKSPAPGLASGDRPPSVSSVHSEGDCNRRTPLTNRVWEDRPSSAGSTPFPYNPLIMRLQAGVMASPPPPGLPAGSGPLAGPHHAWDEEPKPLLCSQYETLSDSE

CC1=C(C(=O)Nc2cccnc2)C(c2ccncc2)n2nnnc2N1 (stereo not drawn)
EC50 [1]: > 50 µM (not active)

Cn1nc(C(F)(F)F)c(-c2ccccc2)c1NC(=O)CCC(=O)O
EC50 [2]: > 55.7 µM (not active)
EC50 [3]: > 55.7 µM (not active)

O=C(CSc1ccncc1)N1c2ccccc2Sc2ccccc21
EC50 (Streptococcus): > 500 µM (not active)

Oc1cc2c(cc1C(c1ccc3c(c1)OCO3)N1CCOCC1)OCO2 (stereo not drawn)
IC50 [4]: > 40 µM (not active)

O=C(CCCCCn1c(=S)[nH]c2ccccc2c1=O)N1CCN(c2ccc(C(F)(F)F)cc2)CC1
IC50 (Estrogen receptor): 42.8 µM (not active)

CCNC(=S)Nc1nc2c(cc1C(=O)OCC)CCCC2
IC50 [5]: > 39.8 µM (not active)
IC50 [6]: 32.7 µM (not active)

Cc1ccc(NC(=O)C(OC(=O)c2ccc(F)cc2)c2ccccc2)cc1Cl (stereo not drawn)
IC50 [7]: 6.4 µM (active)
IC50 [8]: 15.6 µM (not active)

O=C(O)C1Nc2ccc([N+](=O)[O-])cc2C2C=CCC12 (stereo not drawn)
IC50 [9]: 97.4 µM (active)
IC50 [10]: 47.5 µM (active)
IC50 [11]: 48.4 µM (active)
IC50 [12]: 7.58 µM (active)
IC50 [13]: 6.06 µM (active)
IC50 [14]: 52 µM (active)

COc1ccc2c(Cl)c(C(=O)N/N=C/c3ccc4c(c3)OCO4)sc2c1
EC50 [15]: 20.7 µM (active)
IC50 [16]: > 67 µM (not active)
EC50 [17]: 25.4 µM (active)
IC50 [18]: 5.11 µM (active)

COc1cccc(N/N=C2\C(=O)Nn3c2nc2c(c3=O)CCC2)c1
EC50 [19]: > 100 µM (active)

Brc1ccc(N/N=C(/N=Nc2nn[nH]n2)c2ccccc2)cc1
IC50 [20]: 6.49 µM (active)
EC50 (cells [21]): 86.5 µM (active)
EC50 [22]: 7.5 µM (active)
EC50 [23]: > 38 µM (not active)
CC50 [24]: 7.7 µM (active)
IC50 [25]: 9.87 µM (active)
IC50 (Nonstructural protein 1): 6 µM (active)
EC50 (cells [26]): 47.2 µM (active)
EC50 [27]: 2.55 µM (inconclusive)
AC50 (INS1): 1.77 µM (active)

CN(C)c1ccc(C(=C2C=CC(=[N+](C)C)C=C2)c2c(O)c(S(=O)(=O)[O-])cc3cc(S(=O)(=O)O)ccc23)cc1
AC50 (Cytochrome P450 2C9): 2.51 µM (inconclusive)
AC50 (Cytochrome P450 2D6): 3.16 µM (inconclusive)
